Measured values from ChEMBL document CHEMBL1201862, “PubChem BioAssay data set” (2004).
Activity calls are given as the source filed them.

What was measured:
[1] = molecular target: T1, RNA-binding protein pos-1 (Caenorhabditis elegans, UniProt G5EF15); experiment: disruptors of C. elegans POS-1 RNA interaction – biochemical, fluorescence polarization, dose response (AID 1964);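 note: purified POS-1 fused to maltose binding protein made in E. coli; potency of compounds blocking POS-1 binding to fluorescent RNA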
T1 sequence (G5EF15 whole entry): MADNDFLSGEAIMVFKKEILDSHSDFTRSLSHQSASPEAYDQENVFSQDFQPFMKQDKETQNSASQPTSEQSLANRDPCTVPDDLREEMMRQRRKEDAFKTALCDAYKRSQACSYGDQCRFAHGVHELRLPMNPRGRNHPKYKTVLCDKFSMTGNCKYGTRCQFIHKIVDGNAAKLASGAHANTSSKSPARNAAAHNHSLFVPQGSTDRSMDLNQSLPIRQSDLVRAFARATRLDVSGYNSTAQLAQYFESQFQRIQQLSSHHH

[2] = molecular target: T2, Zinc finger protein mex-5 (Caenorhabditis elegans, UniProt Q9XUB2); experiment: potency of MEX-5 RNA-binding blockers – biochemical, C. elegans, fluorescence polarization, dose response (AID 1960)
T2 sequence (Q9XUB2 whole entry): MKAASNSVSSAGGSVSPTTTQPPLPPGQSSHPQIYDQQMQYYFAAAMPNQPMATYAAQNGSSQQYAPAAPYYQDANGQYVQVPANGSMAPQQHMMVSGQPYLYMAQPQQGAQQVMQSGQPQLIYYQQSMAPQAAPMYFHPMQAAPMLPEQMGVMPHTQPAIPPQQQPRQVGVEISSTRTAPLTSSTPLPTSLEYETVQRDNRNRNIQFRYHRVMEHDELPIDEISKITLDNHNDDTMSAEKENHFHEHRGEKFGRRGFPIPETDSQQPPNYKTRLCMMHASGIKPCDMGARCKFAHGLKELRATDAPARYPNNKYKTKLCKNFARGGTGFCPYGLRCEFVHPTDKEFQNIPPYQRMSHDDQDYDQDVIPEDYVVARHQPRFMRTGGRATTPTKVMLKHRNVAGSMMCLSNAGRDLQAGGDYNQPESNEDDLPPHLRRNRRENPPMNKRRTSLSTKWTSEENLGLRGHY

[3] = molecular target: T3, Endoribonuclease toxin MazF (Escherichia coli K-12, UniProt P0AE70); experiment: MazEF toxin-antitoxin RNase activation – biochemical, fluorescence, single-stranded RNA substrate, SAR follow-up (AID 588603); type: functional
T3 sequence (P0AE70 whole entry): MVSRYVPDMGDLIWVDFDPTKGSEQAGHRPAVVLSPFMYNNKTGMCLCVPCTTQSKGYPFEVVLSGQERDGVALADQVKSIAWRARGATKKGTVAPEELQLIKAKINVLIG

[4] = molecular target: T3, Endoribonuclease toxin MazF; experiment: activation of MazEF endoribonuclease cleavage – biochemical, fluorescence, single-stranded RNA substrate, uHTS hits, dose response (AID 588481); type: functional
[5] = test system: MEF; experiment: SAR analysis of small molecule cytotoxicity of MazEF TA System activators in embryonic fibroblast (MEF) cells. [Related pubchem assays (depositor defined):AID504720, AID504743]; type: functional; conditions: Mus musculus
[6] = molecular target: T3, Endoribonuclease toxin MazF; experiment: SAR analysis of small molecule activators of the MazEF TA System via a fluorescence-based single-stranded RNase assay counterscreen. [Related pubchem assays (depositor defined):AID504720, AID504743]; type: functional
[7] = molecular target: T3, Endoribonuclease toxin MazF; experiment: substrate-only fluorescence increase artefacts – biochemical, single-stranded RNase substrate, counter-screen for MazEF activator project, dose response (AID 588502); type: functional
[8] = molecular target: Genome polyprotein (dengue virus type 2, UniProt P29990); experiment: flavivirus cap methylation enzyme inhibition – biochemical, confirmation dose response, primary screen (AID 588689); type: functional
Sequence of Genome polyprotein (P29990 2492-3391 limits assumed): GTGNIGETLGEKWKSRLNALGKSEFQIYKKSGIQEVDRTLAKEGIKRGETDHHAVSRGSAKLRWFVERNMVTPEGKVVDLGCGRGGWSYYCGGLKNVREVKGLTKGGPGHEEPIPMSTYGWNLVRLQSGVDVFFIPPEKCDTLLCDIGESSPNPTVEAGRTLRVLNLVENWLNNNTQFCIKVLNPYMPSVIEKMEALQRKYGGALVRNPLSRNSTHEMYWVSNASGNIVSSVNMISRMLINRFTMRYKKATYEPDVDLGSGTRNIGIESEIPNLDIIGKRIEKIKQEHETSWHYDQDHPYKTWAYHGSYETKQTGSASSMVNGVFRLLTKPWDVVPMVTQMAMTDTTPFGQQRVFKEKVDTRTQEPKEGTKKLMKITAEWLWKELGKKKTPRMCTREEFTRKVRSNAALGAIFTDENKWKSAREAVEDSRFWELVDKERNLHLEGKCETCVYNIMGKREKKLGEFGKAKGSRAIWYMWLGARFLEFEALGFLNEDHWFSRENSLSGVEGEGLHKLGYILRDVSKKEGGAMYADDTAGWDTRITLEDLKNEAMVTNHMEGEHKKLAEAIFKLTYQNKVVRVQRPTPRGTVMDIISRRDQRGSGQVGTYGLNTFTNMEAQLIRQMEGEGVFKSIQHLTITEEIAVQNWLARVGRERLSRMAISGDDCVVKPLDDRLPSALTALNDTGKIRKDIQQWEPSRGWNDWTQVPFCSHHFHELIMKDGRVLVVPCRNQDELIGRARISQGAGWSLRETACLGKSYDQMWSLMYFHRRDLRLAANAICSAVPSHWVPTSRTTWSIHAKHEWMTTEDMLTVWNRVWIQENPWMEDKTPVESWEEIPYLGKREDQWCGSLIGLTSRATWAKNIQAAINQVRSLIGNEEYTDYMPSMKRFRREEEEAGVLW

[9] = test system: HEK293; experiment: EBV LMP1 TES2 canonical NF-kB signalling blockers – cell-based, HEK293, luciferase, cherry-pick, dose response (AID 588343); type: functional; conditions: Homo sapiens
[10] = molecular target: Latent membrane protein 1 (Human herpesvirus 4 (strain B95-8), UniProt P03230); experiment: LMP1 TES1 pathway selectivity over dsRED control – imaging, HEK293T, dual-color eGFP/dsRED, cherry-picks, selectivity assay for LMP1 NF-kB inhibitor project, dose response (AID 588398); type: functional, cell-based
Sequence of Latent membrane protein 1 (P03230 whole entry): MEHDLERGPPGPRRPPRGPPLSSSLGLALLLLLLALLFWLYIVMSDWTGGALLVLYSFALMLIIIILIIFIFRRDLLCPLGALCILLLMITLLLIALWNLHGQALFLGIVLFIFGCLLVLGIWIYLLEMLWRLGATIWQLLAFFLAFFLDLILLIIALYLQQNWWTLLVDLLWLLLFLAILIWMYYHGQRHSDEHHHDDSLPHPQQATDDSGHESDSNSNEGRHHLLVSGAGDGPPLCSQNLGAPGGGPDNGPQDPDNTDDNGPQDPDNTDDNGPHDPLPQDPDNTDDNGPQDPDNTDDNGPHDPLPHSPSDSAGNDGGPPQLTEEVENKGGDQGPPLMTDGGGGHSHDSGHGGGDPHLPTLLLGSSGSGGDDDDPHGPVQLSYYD

[11] = reduction of Shn3 3'UTR-driven luciferase in osteoblasts – cell-based, Clone20 osteoblasts, firefly luciferase, cherry-picked, dose response (AID 624132); type: functional;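 note: firefly luciferase luminescence from reporter carrying the Shn3 3'UTR in osteoblasts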
[12] = loss of viability in HepG2 cells – cell-based, CellTiter-Glo, cherry-picked, cytotoxicity control for Shn3 inhibitor project, dose response (AID 624134); type: functional
[13] = non-specific 3'UTR reporter inhibition in Clone20-Shn3RL – cell-based, Renilla luciferase, cherry-picked, counter-screen for Shn3 inhibitor project, dose response (AID 624133); type: functional
[14] = molecular target: COUP transcription factor 2 (Homo sapiens, UniProt P24468); experiment: Luminescence-based cell-based high throughput dose response assay to identify inhibitors of COUP-TFII (NR2F2).; type: functional;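 note: HEK293 cells transiently cotransfected with COUP-TFII expression vector and reporter; luciferase reporter luminescence driven by COUP-TFII from the pX2-168 reporter plasmid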
Sequence of COUP transcription factor 2 (P24468 whole entry): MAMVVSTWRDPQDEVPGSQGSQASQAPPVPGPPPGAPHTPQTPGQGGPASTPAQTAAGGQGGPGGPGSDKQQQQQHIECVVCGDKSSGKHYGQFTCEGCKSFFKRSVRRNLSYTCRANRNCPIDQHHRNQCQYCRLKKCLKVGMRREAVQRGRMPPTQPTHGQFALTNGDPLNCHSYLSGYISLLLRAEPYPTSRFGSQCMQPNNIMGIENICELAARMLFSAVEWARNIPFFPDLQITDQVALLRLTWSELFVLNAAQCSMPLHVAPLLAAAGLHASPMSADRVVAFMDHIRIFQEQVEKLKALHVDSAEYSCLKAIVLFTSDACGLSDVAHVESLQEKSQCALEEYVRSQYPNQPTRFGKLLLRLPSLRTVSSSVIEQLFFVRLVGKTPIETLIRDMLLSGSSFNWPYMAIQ

Compound | EC50 [1] | EC50 [2] | EC50 [3] | EC50 [4] | CC50 [5] | EC50 [6] | EC50 [7] | IC50 [8] | AC50 [9] | AC50 [10] | AC50 [11] | AC50 [12] | AC50 [13] | IC50 [14]
C=CCOc1cccc(C2C(C(=O)c3ccc(C)o3)=C(O)C(=O)N2c2nccs2)c1 (centres undefined) | > 300 µM (inconclusive) | 851 nM (active) | 22.3 µM (inactive) | 11.4 µM (active) | > 99 µM (inactive) | 44.5 µM (inactive) | > 99 µM (inactive) | 5.64 µM (active) | – | – | – | – | – | –
O=C(NC1CCCCCCC1)c1cc(COc2ccc3ncccc3c2)on1 | – | – | – | – | – | – | – | – | 39.6 µM (active) | 60.1 µM (active) | 1.06 µM (active) | 2.97 µM (active) | 11.8 µM (active) | 4.41 µM (active)
